In patent US20260125375A1 (Pfizer Inc., priority 2022, published 2026):

Key:
[1] = target: T1, C-CBL (residues 46-435) (Homo sapiens, UniProt P22681); test: Ligand Displacement Assay (LDA), HTRF competitive binding against BODIPY-labeled fluorescent tracer, C-CBL; details: geometric mean of the number of tests, read-out: C-CBL Ki (nM) GMean
T1 construct: Purified CBL-B (residues 36-427) and C-CBL (residues 46-435) proteins from baculovirus-infected insect cells; made in house; host or cells: baculovirus-infected insect cells
T1 sequence (P22681 46-435): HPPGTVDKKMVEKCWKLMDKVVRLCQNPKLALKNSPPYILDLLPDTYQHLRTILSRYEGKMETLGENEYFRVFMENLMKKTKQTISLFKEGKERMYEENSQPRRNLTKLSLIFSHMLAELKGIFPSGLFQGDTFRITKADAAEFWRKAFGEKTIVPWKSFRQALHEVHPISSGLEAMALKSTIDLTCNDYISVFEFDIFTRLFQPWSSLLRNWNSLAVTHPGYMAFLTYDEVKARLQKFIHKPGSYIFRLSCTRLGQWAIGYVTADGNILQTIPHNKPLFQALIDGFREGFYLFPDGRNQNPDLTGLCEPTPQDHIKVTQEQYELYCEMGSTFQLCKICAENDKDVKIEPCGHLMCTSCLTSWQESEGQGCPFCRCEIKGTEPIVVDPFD
From the text: (§1) Ligand Displacement Assay (LDA)
(§2) The purpose of the homogeneous time-resolved fluorescence energy transfer (HTRF) ligand displacement assay is to determine whether the compounds of the disclosure are competitive with a BODIPY-labeled compound; “fluorescent tracer” aka [6-cyclopropyl-5-(17-{5-[(3,5-dimethyl-2H-pyrrol-2-ylidene-KN)methyl]-1H-pyrrol-2-yl-κN}-15-oxo-5,8,11-trioxa-2,14-diazaheptadecan-1-yl)-N-(3-{3-[(4-methyl-4H-1,2,4-triazol-3-yl)methyl]oxetan-3-yl}phenyl)pyridine-2-carboxamidato](difluorido)boron and to assess CBL-B binding selectivity over C-CBL. The synthesis of this fluorescent tracer compound is described below.
(§3) Purified CBL-B (residues 36-427) and C-CBL (residues 46-435) proteins from baculovirus-infected insect cells were biotin labeled on their amino-terminal AviTag™ epitopes by the E. coli biotin ligase BirA to bind terbium-labeled streptavidin (SA-Tb). After optimizing the assays and determining KD values for the fluorescent tracer to CBL-B and C-CBL, compounds were tested using three-fold serial dilutions in duplicate from a top concentration of […] with a final DMSO concentration of 2%. […] The Ki (nM) values reported are the geometric means (GMean) of the number of tests conducted.

[2] = target: T2, WT CBL-B (36-427) (Homo sapiens, UniProt Q13191); test: Surface Plasmon Resonance (SPR) assay, binding affinity and kinetics, CBL-B; details: SPR at 10° C., biotinylated WT CBL-B (36-427) on streptavidin chip; geometric mean; read-out: CBL-B SPR Kd (nM) GMean
T2 construct: N-terminal biotinylated WT CBL-B (36-427) and C-CBL (46-435) were captured on a streptavidin (SA) coated sensor chip
Experimental: (§4) Surface Plasmon Resonance (SPR) Assay
(§5) The purpose of the SPR assay is to evaluate the binding affinity and kinetics of the compound of disclosure binding to CBL-B and C-CBL.
(§6) The binding affinity and kinetics of compound binding to CBL-B and C-CBL were measured by Surface Plasmon Resonance (SPR) using either Biacore S200, 8K or 8K+ (Cytiva, Marlborough, MA) instruments. N-terminal biotinylated WT CBL-B (36-427) and C-CBL (46-435) were captured on a streptavidin (SA) coated sensor chip to achieve approximately 5000 to 6000 RUs of surface density. Un-functionalized SA surfaces with no immobilized protein served as reference for binding kinetic analysis. All the samples were prepared in buffer consisting of 10 mM HEPES, 150 mM NaCl, 0.05% Tween-20, 5% glycerol, […], 2% DMSO, pH 7.2. The same buffer was used as the running buffer during the experiments. Compound binding kinetics were measured in either multi-cycle or single-cycle kinetic format.
(§7) Multi-cycle kinetic analysis (MCK): A two-fold, 10-point serial dilution of test compounds was set-up in a 96-well microplate (Greiner; Cat #650101) with a top concentration of either 10 μM or 100 μM. Binding kinetics was measured at 10° C. by injecting serial dilution of compounds onto both reference and CBL immobilized channels at a flow rate of 100 μL/min and association time of 90 seconds. Compound dissociation was monitored for >400 seconds during each cycle. No additional regeneration was used. DMSO calibration curve was obtained before and after compound analysis by injecting 0-4% of DMSO in assay buffer. A suitable compound with known affinity and kinetics was tested once in every experiment as a positive control to assess activity of the captured proteins on the surface.
(§8) Single-cycle kinetic analysis (SCK): A 3-fold, 6-point serial dilution of compounds was set-up in a deep 96-well microplate (Greiner Bio; Cat #780201) with the highest concentration of 1 μM (concentration range: […]). Binding kinetics was measured at 10° C. by injecting serial dilutions of compounds in increasing order onto reference as well as CBL immobilized channels at a flow rate of 100 μL/min and association time of 120 seconds. Compound dissociation was monitored for >5400 seconds. Two buffer blanks were also run in a single-cycle kinetics format before the compound run for double referencing. No additional regeneration was used. DMSO calibration curve was obtained before and after compound analysis by injecting 0-4% of DMSO in the assay buffer. A suitable compound with known affinity and kinetics was tested once in every experiment as a positive control to assess activity of the captured proteins on the surface.

[3] = target: T3, CBL-B (residues 36-427) (Homo sapiens, UniProt Q13191); test: Ligand Displacement Assay (LDA), HTRF competitive binding against BODIPY-labeled fluorescent tracer, CBL-B; details: geometric mean of the number of tests, read-out: CBL-B Ki (nM) GMean
T3 construct: Purified CBL-B (residues 36-427) and C-CBL (residues 46-435) proteins from baculovirus-infected insect cells; made in house; host or cells: baculovirus-infected insect cells
From the text: as §1, §2, §3

[4] = target: T4, C-CBL (46-435) (Homo sapiens, UniProt P22681); test: Surface Plasmon Resonance (SPR) assay, binding affinity and kinetics, C-CBL; details: SPR at 10° C., biotinylated C-CBL (46-435) on streptavidin chip; geometric mean; read-out: C-CBL SPR Kd (nM) GMean
T4 construct: N-terminal biotinylated WT CBL-B (36-427) and C-CBL (46-435) were captured on a streptavidin (SA) coated sensor chip
T4 sequence (P22681 46-435): T1 sequence (P22681 46-435)
Experimental: as §4, §5, §6, §7, §8

Row | Compound | Ki [1] [nM] | Kd [2] [nM] | Ki [3] [nM] | Kd [4] [nM]
1 | CN1CCC(Oc2nc(C(F)(F)F)cc3c(-c4cccc(C5(Cc6nncn6C)COC5)c4)n[nH]c23)C1 (stereo in doubt) [Example J2, 7-{[(3S)-1-methylpyrrolidin-3-yl]oxy}-3-(3-{3-[(4-methyl-4H-1,2,4-triazol-3-yl)methyl]oxetan-3-yl}phenyl)-5-(trifluoromethyl)-1H-pyrazolo[3,4-c]pyridine] | 76.6 | 4.8 | 19.1 | 37.6
2 | CCNC(C)c1nc(C(F)(F)F)cc2c(-c3cccc(C4(Cc5nncn5C)COC4)c3)n[nH]c12 (single isomer, unassigned) [Example C83, (1ξ)-N-ethyl-1-[3-(3-{3-[(4-methyl-4H-1,2,4-triazol-3-yl)methyl]oxetan-3-yl}phenyl)-5-(trifluoromethyl)-1H-pyrazolo[3,4-c]pyridin-7-yl]ethan-1-amine] | 137 | 12.4 | 37.1 | 161
3 | Cn1cnnc1CC1(c2cccc(-c3n[nH]c4ccc(Cl)cc34)c2)COC1 [Example B7, 5-chloro-3-(3-{3-[(4-methyl-4H-1,2,4-triazol-3-yl)methyl]oxetan-3-yl}phenyl)-1H-indazole] | 150 | 7.2 | 25.1 | 108
4 | Cn1cnnc1CC1(c2cccc(-c3n[nH]c4c(CN5CCC5)nc(C(F)(F)F)cc34)c2)COC1 [Example C61, 7-[(azetidin-1-yl)methyl]-3-(3-{3-[(4-methyl-4H-1,2,4-triazol-3-yl)methyl]oxetan-3-yl}phenyl)-5-(trifluoromethyl)-1H-pyrazolo[3,4-c]pyridine] | 232 | 12.8 | 53 | 99.8
5 | Cn1cnnc1CC1(c2cccc(-c3n[nH]c4c(CNC5CC(F)(F)C5)nc(C(F)(F)F)cc34)c2)COC1 [Example C78, 3,3-difluoro-N-{[3-(3-{3-[(4-methyl-4H-1,2,4-triazol-3-yl)methyl]oxetan-3-yl}phenyl)-5-(trifluoromethyl)-1H-pyrazolo[3,4-c]pyridin-7-yl]methyl}cyclobutan-1-amine] | 253 | 10 | 56.6 | 144
6 | Cn1cnnc1[C@@H](c1cccc(-c2n[nH]c3c(CN4CCCC4)nc(C(F)(F)F)cc23)c1)C1CCC1 [Example D94] | 192 | 5.5 | 29.2 | 163
7 | CC(NC1CC2(COC2)C1)c1nc(C(F)(F)F)cc2c(-c3cccc([C@H](c4nncn4C)C4CCC4)c3)n[nH]c12 (single isomer, unassigned) [Example C97] | 141 | 9.6 | 31.8 | 242
8 | COc1nc(C(F)(F)F)cc2c(-c3cccc(C4(Cc5nncn5C)COC4)c3)n[nH]c12 [Example J10, 7-methoxy-3-(3-{3-[(4-methyl-4H-1,2,4-triazol-3-yl)methyl]oxetan-3-yl}phenyl)-5-(trifluoromethyl)-1H-pyrazolo[3,4-c]pyridine] | 91.9 | 21.4 | 25.1 | 178
9 | CN1CC[C@H](Oc2nc(C(F)(F)F)cc3c(-c4cccc([C@H](c5nncn5C)C5CCC5)c4)n[nH]c23)C1 [Example J5, 3-{3-[(R)-cyclobutyl(4-methyl-4H-1,2,4-triazol-3-yl)methyl]phenyl}-7-{[(3S)-1-methylpyrrolidin-3-yl]oxy}-5-(trifluoromethyl)-1H-pyrazolo[3,4-c]pyridine] | 87.1 | 3.3 | 10 | 137
10 | Cn1cnnc1[C@@H](c1cccc(-c2n[nH]c3c(CN4CCC(F)(F)C4)nc(C(F)(F)F)cc23)c1)C1CCC1 [Example C114, 3-{3-[(R)-cyclobutyl(4-methyl-4H-1,2,4-triazol-3-yl)methyl]phenyl}-7-[(3,3-difluoropyrrolidin-1-yl)methyl]-5-(trifluoromethyl)-1H-pyrazolo[3,4-c]pyridine] | 1070 | 10.8 | 87.9 | 278
11 | CCNC(C)c1nc(C(F)(F)F)cc2c(-c3cccc([C@H](c4nncn4C)C4CCC4)c3)n[nH]c12 (single isomer, unassigned) [Example C90] | 93.3 | 5.1 | 9.4 | 169
12 | Cn1cnnc1CC1(c2cccc(-c3n[nH]c4c(CN5CCNC(=O)C5)nc(C(F)(F)F)cc34)c2)COC1 [Example C55, 4-{[3-(3-{3-[(4-methyl-4H-1,2,4-triazol-3-yl)methyl]oxetan-3-yl}phenyl)-5-(trifluoromethyl)-1H-pyrazolo[3,4-c]pyridin-7-yl]methyl}piperazin-2-one] | 65.3 | 3 | 21.2 | 27.6
13 | CN1CC[C@H](Oc2nc(C(F)(F)F)cc3c(-c4cccc(C5(Cc6nncn6C)COC5)c4)n[nH]c23)C1 [Example J1, 7-{[(3S)-1-methylpyrrolidin-3-yl]oxy}-3-(3-{3-[(4-methyl-4H-1,2,4-triazol-3-yl)methyl]oxetan-3-yl}phenyl)-5-(trifluoromethyl)-1H-pyrazolo[3,4-c]pyridine] | 58.1 | 4.3 | 13.5 | 36.7
14 | C[C@@H](c1nc(C(F)(F)F)cc2c(-c3cccc(C4(Cc5nncn5C)COC4)c3)n[nH]c12)N1CCNC(=O)C1 (single isomer, unassigned) [Example D51] | 19.6 | 2.7 | 5.7 | 15
15 | Cn1cnnc1[C@@H](c1cccc(-c2n[nH]c3c(CN[C@@H]4CC[C@H](O)C4)nc(C(F)(F)F)cc23)c1)C1CCC1 [Example D34] | 59.9 | 1.8 | 6.5 | 101
16 | Cn1cnnc1[C@@H](c1cccc(-c2n[nH]c3c(CN4CCC4)nc(C(F)(F)F)cc23)c1)C1CCC1 [Example D83] | 198 | 7.6 | 27.7 | 177
